From patent US12077503B2, “Substituted cyclic amides and their use as herbicides” (FMC CORPORATION, priority 2015, dated 2024)

How the values were obtained:
Assay type in all cases: in vivo
[1] = test system: crabgrass, large (Digitaria sanguinalis); assay: Test A postemergence; details: Digitaria sanguinalis, post-emergence, 240 h, Postemergence; for pest or weed control at 125 g/ha: 125 g ai/ha, visual rating about 10 d after treatment, read-out: Crabgrass, Large plant response rating (0 to 100 scale); for pest or weed control at 500 g/ha: 500 g ai/ha, visual injury, 0 to 100 scale (0 no effect, 100 complete control), approx. 10 d, read-out: Plant response rating, Crabgrass, Large
Outline: (§1)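 Seeded soil received test chemicals as a preemergence directed spray, and seedlings at one to two leaves, 2–10 cm tall, received them postemergence, in a non-phytotoxic, surfactant-containing solvent mixture. Pots were held in a greenhouse for approximately 10 d, then rated for injury from 0, no effect, to 100, complete control.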

[2] = test system: morningglory (Ipomoea spp.); assay: Test A postemergence; details: Ipomoea, post-emergence, 240 h, Postemergence; for pest or weed control at 125 g/ha: 125 g ai/ha, visual rating about 10 d after treatment, read-out: Morningglory plant response rating (0 to 100 scale); for pest or weed control at 500 g/ha: 500 g ai/ha, visual injury, 0 to 100 scale (0 no effect, 100 complete control), approx. 10 d, read-out: Plant response rating, Morningglory
Outline: as §1

[3] = test system: velvetleaf (Abutilon theophrasti); assay: Test A postemergence; details: Abutilon theophrasti, post-emergence, 240 h, Postemergence; for pest or weed control at 125 g/ha: 125 g ai/ha, visual rating about 10 d after treatment, read-out: Velvetleaf plant response rating (0 to 100 scale); for pest or weed control at 500 g/ha: 500 g ai/ha, visual injury, 0 to 100 scale (0 no effect, 100 complete control), approx. 10 d, read-out: Plant response rating, Velvetleaf
Outline: as §1

[4] = test system: crabgrass, large (Digitaria sanguinalis); assay: Test A preemergence; details: Digitaria sanguinalis, pre-emergence, 240 h, 0 to 100 scale (0 no effect, 100 complete control), read-out: Plant response rating, Crabgrass, Large; for pest or weed control at 500 g/ha: 500 g ai/ha, preemergence; for pest or weed control at 125 g/ha: Preemergence, 125 g ai/ha
Outline: as §1

[5] = test system: wheat (Triticum aestivum); assay: Test A preemergence; details: Triticum aestivum, pre-emergence, 240 h, 0 to 100 scale (0 no effect, 100 complete control), read-out: Plant response rating, Wheat; for plant injury at 500 g/ha: 500 g ai/ha, preemergence; for plant injury at 125 g/ha: Preemergence, 125 g ai/ha
Outline: as §1

[6] = test system: morningglory (Ipomoea spp.); assay: Test A preemergence; details: Ipomoea, pre-emergence, 240 h, 0 to 100 scale (0 no effect, 100 complete control), read-out: Plant response rating, Morningglory; for pest or weed control at 500 g/ha: 500 g ai/ha, preemergence; for pest or weed control at 125 g/ha: Preemergence, 125 g ai/ha
Outline: as §1

[7] = test system: velvetleaf (Abutilon theophrasti); assay: Test A preemergence; details: Abutilon theophrasti, pre-emergence, 240 h, 0 to 100 scale (0 no effect, 100 complete control), read-out: Plant response rating, Velvetleaf; for pest or weed control at 500 g/ha: 500 g ai/ha, preemergence; for pest or weed control at 125 g/ha: Preemergence, 125 g ai/ha
Outline: as §1

[8] = test system: corn (Zea mays); assay: Test A preemergence; details: Zea mays, pre-emergence, 240 h, 0 to 100 scale (0 no effect, 100 complete control); for Corn plant response rating (crop injury, 0 = no effect, 100 = complete kill) at 500 g/ha: 500 g ai/ha, preemergence; for Corn plant response rating (crop injury, 0 = no effect, 100 = complete kill) at 125 g/ha: Preemergence, 125 g ai/ha
Outline: as §1

[9] = test system: barnyardgrass (Echinochloa crus-galli); assay: Test G Post-Emergence Protocol; details: Echinochloa crus-galli, post-emergence, 312 h; for pest or weed control at 15.625 g/ha: 15.625 g ai/ha, evaluated after 13 days (100=total damage to plant; 0=no damage to plant), read-out: Barnyardgrass damage rating; for pest or weed control at 62.5 g/ha: 62.5 g ai/ha, read-out: Barnyardgrass damage rating (100=total damage to plant; 0=no damage to plant); for pest or weed control at 62.5 g/ha / pest or weed control at 250 g/ha: evaluated after 13 days; for pest or weed control at 250 g/ha: 250 g ai/ha, read-out: damage to plant, Barnyardgrass (100=total damage to plant; 0=no damage to plant)
Procedure: (§2) Seeds of corn (Zea mays), giant foxtail (Setaria faberi), barnyardgrass (Echinochloa crus-galli), ivy-leaved morning glory (Ipomoea hederacea), redroot pigweed (Amaranthus retroflexus) and velvetleaf (Abutilon theophrasti) were sown in standard soil in pots. After cultivation for 8 days under controlled conditions in a glasshouse (at 24/16° C., day/night; 14 hours light; 65% humidity), the plants were sprayed with an aqueous spray solution derived from the formulation of the technical active ingredient in acetone/water (50:50) solution containing 0.5% Tween 20 (polyoxyethylene sorbitan monolaurate, CAS RN 9005-64-5) to give a final dose of 15.625, 62.5 or 250 g/ha of test compound.
(§3) The test plants were then grown on under controlled conditions in a glasshouse (at 24/16° C., day/night; 14 hours light; 65% humidity) and watered twice daily. After 13 days the test was evaluated (100=total damage to plant; 0=no damage to plant). A dash (-) means no test result.

[10] = test system: redroot pigweed (Amaranthus retroflexus); assay: Test G Post-Emergence Protocol; details: Amaranthus retroflexus, post-emergence, 312 h; for pest or weed control at 15.625 g/ha: 15.625 g ai/ha, evaluated after 13 days (100=total damage to plant; 0=no damage to plant), read-out: Pigweed, Redroot damage rating; for pest or weed control at 62.5 g/ha: 62.5 g ai/ha, read-out: Pigweed, Redroot damage rating (100=total damage to plant; 0=no damage to plant); for pest or weed control at 62.5 g/ha / pest or weed control at 250 g/ha: evaluated after 13 days; for pest or weed control at 250 g/ha: 250 g ai/ha, read-out: damage to plant, Pigweed, Redroot (100=total damage to plant; 0=no damage to plant)
Procedure: as §2, §3

[11] = test system: corn (Zea mays); assay: Test G Post-Emergence Protocol; details: Zea mays, post-emergence, 312 h; for plant injury at 15.625 g/ha: 15.625 g ai/ha, evaluated after 13 days (100=total damage to plant; 0=no damage to plant), read-out: Corn damage rating; for plant injury at 62.5 g/ha: 62.5 g ai/ha, read-out: Corn damage rating (100=total damage to plant; 0=no damage to plant); for plant injury at 62.5 g/ha / plant injury at 250 g/ha: evaluated after 13 days; for plant injury at 250 g/ha: 250 g ai/ha, read-out: damage to plant, Corn (100=total damage to plant; 0=no damage to plant)
Procedure: as §2, §3

SMILES	pest or weed control at 125 g/ha [1] [%]	pest or weed control at 500 g/ha [1] [%]	pest or weed control at 125 g/ha [2] [%]	pest or weed control at 500 g/ha [2] [%]	pest or weed control at 125 g/ha [3] [%]	pest or weed control at 500 g/ha [3] [%]	pest or weed control at 500 g/ha [4] [%]	pest or weed control at 125 g/ha [4] [%]	plant injury at 500 g/ha [5] [%]	plant injury at 125 g/ha [5] [%]	pest or weed control at 500 g/ha [6] [%]	pest or weed control at 15.625 g/ha [9] [%]	pest or weed control at 62.5 g/ha [9] [%]	pest or weed control at 250 g/ha [9] [%]	pest or weed control at 15.625 g/ha [10] [%]	pest or weed control at 62.5 g/ha [10] [%]	pest or weed control at 250 g/ha [10] [%]	plant injury at 15.625 g/ha [11] [%]	plant injury at 62.5 g/ha [11] [%]	plant injury at 250 g/ha [11] [%]	other results
O=C1NCC(c2ccccc2)C1C(=O)Nc1ccc(C(F)(F)F)cc1 (centres unmarked) [Compound 1362]	0	0	0	0	0	0	0	0	0	0	0										pest or weed control at 125 g/ha [6]: 0%; pest or weed control at 500 g/ha [7]: 0%; pest or weed control at 125 g/ha [7]: 0%; Corn plant response rating (crop injury, 0 = no effect, 100 = complete kill) at 500 g/ha [8]: 0%; Corn plant response rating (crop injury, 0 = no effect, 100 = complete kill) at 125 g/ha [8]: 0%
CN1C[C@H](c2cccc(C(C)(C)C#N)c2)[C@@H](C(=O)Nc2cccc(F)c2F)C1=O (racemic) [Compound 1497]												20	60	60	0	0	0	10	0	50	
O=C1NCC(c2ccccc2)C1C(=O)Nc1cc(F)ccc1F (centres unmarked) [Compound 1359]	0	0	0	0	0	0	20	0	0	0	0										pest or weed control at 125 g/ha [6]: 0%; pest or weed control at 500 g/ha [7]: 0%; pest or weed control at 125 g/ha [7]: 0%; Corn plant response rating (crop injury, 0 = no effect, 100 = complete kill) at 500 g/ha [8]: 0%; Corn plant response rating (crop injury, 0 = no effect, 100 = complete kill) at 125 g/ha [8]: 0%
CN1C[C@@H](c2ccc(C(F)(F)F)cc2)[C@H](C(=O)Nc2ncc(C(F)(F)F)s2)C1=O (racemic) [Compound 1504]												0	0	0	0	0	0	0	0	0	
CN1C[C@@H](c2ccc(C(F)(F)F)cc2)[C@H](C(=O)Nc2cnccc2C(F)(F)F)C1=O (racemic) [Compound 1401]												0	20	50	0	0	30	0	0	50	
CN1C[C@@H](c2ccc(C(F)(F)F)cc2)[C@H](C(=O)Nc2ccnc(Cl)c2Cl)C1=O (racemic) [Compound 1503]												0	10	10	0	0	0	0	10	10	
